Data from patent US4649136A, “Cephem compounds” (Fujisawa Pharmaceutical Co., Ltd., priority 1981, dated 1987).
Values after ≈ are worked out from the molar mass of the structure shown.

Assays:
Proteus mirabilis 18 = assay: In vitro antibacterial activity, two-fold agar-plate dilution method (MIC); format: cell-based; settings: HI-agar, 10^8 viable cells per ml, 37° C., 20 hours
Protocol: (§1) In vitro antibacterial activity was determined by the two-fold agar-plate dilution method as described below. One loopful of an overnight culture of each test strain in Trypticase-soy broth (10^8 viable cells per ml) was streaked on heart infusion agar (HI-agar) containing graded concentrations of representative test compound, and the minimal inhibitory concentration (MIC) was expressed in terms of μg/ml after incubation at 37° C. for 20 hours.

Klebsiella pneumoniae 7 = assay: as above; format: cell-based; settings: HI-agar, 10^8 viable cells per ml, 37° C., 20 hours
Protocol: as §1

Urinary excretion = format: in vivo; settings: rat; rats; oral administration of 100 mg/kg; urine 0 to 6 and 6 to 24 hours; bioassay; read-out: Urinary recovery in 24 hours (%)
Protocol: Urine of rats was collected with a urine collector at 0 to 6, and 6 to 24 hours after oral administration of 100 mg/kg of the test antibiotic. The antibiotic levels in the urine samples were bioassayed with the standard solution prepared with M/15 phosphate buffer (pH 7.0) and the urinary recovery in 24 hours was calculated.

in vivo = settings: rat, po, 100 mg/kg
Protocol: Rats anesthetized with pentobarbital were fixed in supine position, and a polyethylene cannula was inserted into the bile duct. Bile samples were collected at 0 to 3, 3 to 6, and 6 to 24 hours after oral administration of 100 mg/kg of the test antibiotic. The antibiotic levels in the bile samples were bioassayed with the standard solution prepared with M/15 phosphate buffer (pH 7.0) and the biliary recovery in 24 hours were calculated.

- MIC (Proteus mirabilis 18): 0.05 µg/mL (≈ 0.121 µM)
- MIC (Klebsiella pneumoniae 7): 0.05 µg/mL (≈ 0.121 µM)
- dose excreted at 24 h (Urinary excretion): 43.5%
- dose excreted at 24 h (in vivo): 7.9%
Compound: O=C(O)CO/N=C(\C(=O)NC1C(=O)N2C(C(=O)O)=CCSC12)c1cscn1 (stereo not drawn) [Compound .circle.A, 7-[2-Carboxymethoxyimino-2-(4-thiazolyl)acetamido]-3-cephem-4-carboxylic acid (syn isomer)]
